Data taken from patent EP2848615A1, “New pyrazole derivatives as CRAC channel modulators” (Almirall, S.A., priority 2013, dated 2015).

Experiments:
[1] = test system: Jurkat E6-1 cells; assay: Fluorescent Calcium Flux Assay (thapsigargin store depletion, FLIPR Calcium 5 dye); format: cell-based; conditions: Homo sapiens, Thapsigargin 10µM, 2mM final calcium concentration, read-out: Ca^2+ flux IC50
Procedure: Fluorescent Calcium Flux Assay
Jurkat E6-1 cells were obtained from ATCC (number TIB-152™) and maintained as ATCC recommend; in medium RPMI-1640 with 10% FBS at 37°C and 5% CO2.
Before the assay, Jurkat cells were grown at a density of 2 millions cells/ml in cell culture media (RPMI with 10% FBS) in a T-175 flask at 37°C and 5% CO2.
The day of the assay, cells were harvested by centrifugation (5 minutes at 1500 rpm) and the pellet were suspended in Ca^2+ free assay buffer (HBSS w/o Ca^2+ and Mg ^2+, 20mM Hepes and 1 mM MgCl2, pH 7.4) at a density of 5 million cells/ml.
Calcium depletion was initiated by the addition to the cell suspension of Thapsigarguin at a final assay concentration of 10µM. 20µl of the cellular suspension containing Thapsigargin (100.000 cells/well) were plated into 384 well plates (corning 3711) and incubated at RT for 15 minutes.
Test compounds were diluted in DMSO 100% to get a 10^-2M stock solution and serial dilutions 1/3 were performed in the same solvent. Then, 20µl of test compounds, diluted 75 times in Ca^2+ free assay buffer, were added to the cells and incubated at RT for 1h.
Once this incubation was completed, 5 µl of dye solution (FLIPR Calcium 5 Express Kit, Molecular Devices), prepared as Molecular Devices recommend, were added into the assay plates followed by an extra incubation period of 1 hour at room temperature. After the second incubation period, assay plates were placed into the FLIPR Tetra from Molecular Devices. Fluorescence was measured at a wavelength of 525nm after the dye excitation at 485nm. The initial baseline was measured during 20 seconds, and then 8µl of a 13mM Calcium solution in assay buffer were added (2mM final calcium concentration) except for basal wells, where assay buffer without calcium was added. At this time, changes in the cellular fluorescent were measured for an extra 80 seconds.
Peak and base line were taken for the calculation of the ratio (Peak/Base Line). Total, basal and compound well ratio values were used to calculate %Inhibition.

[2] = test system: Jurkat E6-1 cells; assay: In vitro Assay of Cytokine Release from T Cells (PHA-stimulated IL-2, ELISA); format: cell-based; conditions: Homo sapiens, PHA 20 µg/ml, 20 hours, IL-2 by ELISA, read-out: Jurkat IL2 IC50
Procedure: In vitro Assay of Cytokine Release from T Cells
Jurkat E6-1 cells were obtained from American Type Culture Collection (ATCC) and maintained in complete medium with 10% fetal bovine serum (FBS) at 37°C/5%CO2. Cells were plated in 100 µL of Dubelcco's Modified Eagle Medium (DMEM) with 1% FBS in a 96 well plate at a density of 1x10^6 cells/well and 50 µL of test compound was added. Cells were then stimulated by the addition of 50 µL of phytohemagglutinin (PHA) (final concentration 20 µg/ml) and incubated at 37°C/5%CO2 for 20 hours. On the following day, the supernatants were collected and assayed for IL-2 levels by ELISA according to the manufacturer's protocols. The IC50 value was calculated as the concentration at which 50% of secreted IL-2 in vehicle is inhibited.

Row | IC50 [1] | IC50 [2] | SMILES
1 | 135 nM | 62 nM | COc1ccc(OC)c(NC(=O)c2cc(-c3c(F)cccc3Cl)[nH]n2)c1 [Example 5, 5-(2-chloro-6-fluorophenyl)-N-(2,5-dimethoxyphenyl)-1H-pyrazole-3-carboxamide]
2 | 559 nM | 410 nM | Cn1nc(-c2ccccc2)cc1NC(=O)c1cc(-c2c(F)cccc2Cl)[nH]n1 [Example 6, 5-(2-chloro-6-fluorophenyl)-N-(1-methyl-3-phenyl-1H-pyrazol-5-yl)-1H-pyrazole-3-carboxamide]
3 | 332 nM | 130 nM | Cn1nc(C(F)(F)F)cc1NC(=O)c1cc(-c2c(F)cccc2Cl)[nH]n1 [Example 1, 5-(2-chloro-6-fluorophenyl)-N-[1-methyl-3-(trifluoromethyl)-1H-pyrazol-5-yl]-1H-pyrazole-3-carboxamide]
